From patent US4950669A, “Methods and compositions for promoting growth of animals” (priority 1987, dated 1990)

How the values were obtained:
[1] = hypotensive effect in the awake rabbit; format: in vivo; settings: same dosage (100 mg/kg) i.p.
[2] = rat, in vivo, ip, 50 mg/kg
Description: Per os, in the mouse still, the LD50 is above 2000 mg/kg. In the rat, after i.p. treatment with 50 mg/kg there was, within 3 hours from administration, a maximum lowering of the body temperature of 0.6° in respect to the controls treated with the only suspending medium.

[3] = rabbit, in vivo, ip, 100 mg/kg
[4] = battery study in chickens (Example XVI); format: in vivo; settings: for Mortality: unmedicated 1.1
Description: A battery study was conducted in which N-morpholinyl-β-benzoyl-propionamide was administered to chickens in their feed at levels at 2.5 ppm and 5.0 ppm. The control group was unmedicated. Each medicated treatment had 10 replications of 8 birds per replication, with non-medicated controls having 20 replications of 8 birds per replication. Birds were weighed to determine weight gain and feed-to-gain ratio on days 7, 14 and 21.

[5] = 28-day chicken growth study, feed or i.m. injection (Example XII); format: in vivo, chickens
Description: Portions of N-morpholinyl-β-benzoyl-propionamide were admixed with chicken feed at 1 mg/kg and a 2 mg/kg, respectively. Another portion was formulated into an injectable formulation at a concentration of 2% in polyethylene glycol. The N-morpholinyl-β-benzoylpropionamide was then administered to chickens, either by i.m. injection or in feed, over 28-day period. One group of controls received no medication, while another group of controls received Bacitracin MD in its feed at 30 g/ton. Those chickens receiving intramuscular injections were injected once a week with a dosage of either 1 mg/kg or 2 mg/kg, based on body weight. Birds were weighed on days 0, 14 and 28.

[6] = 70-day lamb study, oral or i.m. injection (Example XVII); format: in vivo, lambs
Description: A 70-day study was conducted in which N-morpholinyl-β-benzoyl-propionamide was administered to lambs by i.m. injection or by admixture with feed. In the case of oral administration, the N-morpholinyl-β-benzoyl-propionamide was mixed with the complete mixed ration at a level of 30 ppm.

[7] = pig growth study, intramuscular injection (Example X); format: in vivo; settings: pigs, 1 mg/kg i.m. every seven days
Description: N-morpholinyl-β-benzoylpropionamide (NMBP) was formulated as an injectable product at a concentration of 2% in polyethylene glycol. The formulation was administered to pigs by intramuscular injection at a dosage of 1 mg/kg, once every seven days. Pigs averaged 52.66 kg at initiation and were terminated at 90.8 kg. Control animals received no injections.

[8] = Injection 1 mg/kg i.m. once a week, Day 14
[9] = Injection 1 mg/kg i.m. once a week, Day 28
[10] = Injection 2 mg/kg i.m. once a week, Day 14
[11] = Injection 2 mg/kg i.m. once a week, Day 28
[12] = Injection, 1.5 mg/kg i.m. every 2 weeks
[13] = Injection, 1.5 mg/kg i.m. every 2 weeks, Day 0-14
[14] = Injection, 1.5 mg/kg i.m. every 2 weeks, Day 0-28
[15] = Injection, 1.5 mg/kg i.m. every 2 weeks, Day 0-42
[16] = Injection, 1.5 mg/kg i.m. every 2 weeks, Day 0-56
[17] = Injection, 1.5 mg/kg i.m. every 2 weeks, Day 0-70
[18] = Injection, 1.5 mg/kg i.m. every 2 weeks, Day 15-28
[19] = Injection, 1.5 mg/kg i.m. every 2 weeks, Day 29-42
[20] = Injection, 1.5 mg/kg i.m. every 2 weeks, Day 43-56
[21] = Injection, 1.5 mg/kg i.m. every 2 weeks, Day 57-70

O=C(CCC(=O)N1CCOCC1)c1ccccc1 [NMBP, N-morpholinyl-β-benzoyl-propionamide]
hypotensive effect [1]: not hypotensive
maximum lowering of the body temperature in respect to the controls [2]: 0.6 °
electrocardiographic variations compared to the controls [3]: no electrocardiographic variations
Feed Conversion ([4]; feed 2.5 ppm, D + 7): 1.67
Weight Gain ([4]; feed 2.5 ppm, D + 7): 256 g
Feed Conversion ([4]; feed 2.5 ppm, D + 14): 1.98
Weight Gain ([4]; feed 2.5 ppm, D + 14): 526 g
Feed Conversion ([4]; feed 2.5 ppm, D + 21): 1.70
Weight Gain ([4]; feed 2.5 ppm, D + 21): 1075 g
Mortality ([4]; feed 2.5 ppm): 1.4
Feed Conversion ([4]; feed 5.0 ppm, D + 7): 1.65
Weight Gain ([4]; feed 5.0 ppm, D + 7): 262 g
Feed Conversion ([4]; feed 5.0 ppm, D + 14): 2.02
Weight Gain ([4]; feed 5.0 ppm, D + 14): 523 g
Feed Conversion ([4]; feed 5.0 ppm, D + 21): 1.71
Weight Gain ([4]; feed 5.0 ppm, D + 21): 1027 g
Mortality ([4]; feed 5.0 ppm): .8
Average Weight ([5]; Feed 1 mg/kg, Day 0 (baseline)): 98.9 g
Average Weight ([5]; Feed 1 mg/kg, Day 14): 462.8 g
Feed Conversion ([5]; Feed 1 mg/kg, Day 14): 1.38
Weight Gain ([5]; Feed 1 mg/kg, Day 14): 363.9 g
Average Weight ([5]; Feed 1 mg/kg, Day 28): 947.6 g
Feed Conversion ([5]; Feed 1 mg/kg, Day 28): 1.64
Weight Gain ([5]; Feed 1 mg/kg, Day 28): 848.7 g
Average Weight ([5]; Feed 2 mg/kg, Day 0 (baseline)): 98.5 g
Average Weight ([5]; Feed 2 mg/kg, Day 14): 474.3 g
Feed Conversion ([5]; Feed 2 mg/kg, Day 14): 1.38
Weight Gain ([5]; Feed 2 mg/kg, Day 14): 375.8 g
Average Weight ([5]; Feed 2 mg/kg, Day 28): 1013.5 g
Feed Conversion ([5]; Feed 2 mg/kg, Day 28): 1.56
Weight Gain ([5]; Feed 2 mg/kg, Day 28): 915.0 g
Average Weight ([5]; Injection 1 mg/kg i.m. once a week, Day 0 (baseline)): 98.7 g
Average Weight [5, 8]: 460.6 g
Feed Conversion [5, 8]: 1.37
Weight Gain [5, 8]: 361.9 g
Average Weight [5, 9]: 938.2 g
Feed Conversion [5, 9]: 1.61
Weight Gain [5, 9]: 839.5 g
Average Weight ([5]; Injection 2 mg/kg i.m. once a week, Day 0 (baseline)): 98.6 g
Average Weight [5, 10]: 456.3 g
Feed Conversion [5, 10]: 1.38
Weight Gain [5, 10]: 357.7 g
Average Weight [5, 11]: 971.4 g
Feed Conversion [5, 11]: 1.56
Weight Gain [5, 11]: 872.8 g
weight loss of one lamb ([6]; Injection group, during the previous 2-week period, sacrificed on Day 55): 10 pounds
Necropsy of one lamb ([6]; Injection group, one lamb sacrificed on Day 55): chronic focal pneumonia
Daily Gain, Period [6, 12]: .16 kilograms
Weight, Final [6, 12]: 42.1 kilograms
Weight, Initial ([6]; Injection, 1.5 mg/kg i.m. every 2 weeks (baseline)): 27.6 kilograms
Daily Feed DM Consumption, Cumulative [6, 13]: 0.94 kilograms
Daily Feed DM Consumption, Period [6, 13]: 0.94 kilograms
Daily Gain, Cumulative [6, 13]: .23 kilograms
Daily Gain, Period [6, 13]: .23 kilograms
Feed DM/Gain, Cumulative [6, 13]: 4.09
Feed DM/Gain, Period [6, 13]: 4.09
Daily Feed DM Consumption, Cumulative [6, 14]: 1.00 kilograms
Daily Gain, Cumulative [6, 14]: .22 kilograms
Feed DM/Gain, Cumulative [6, 14]: 4.55
Daily Feed DM Consumption, Cumulative [6, 15]: 1.05 kilograms
Daily Gain, Cumulative [6, 15]: .22 kilograms
Feed DM/Gain, Cumulative [6, 15]: 4.77
Daily Feed DM Consumption, Cumulative [6, 16]: 1.06 kilograms
Daily Gain, Cumulative [6, 16]: .22 kilograms
Feed DM/Gain, Cumulative [6, 16]: 4.82
Daily Feed DM Consumption, Cumulative [6, 17]: 1.11 kilograms
Daily Gain, Cumulative [6, 17]: .21 kilograms
Feed DM/Gain, Cumulative [6, 17]: 5.29
Daily Feed DM Consumption, Period [6, 18]: 1.06 kilograms
Daily Gain, Period [6, 18]: .21 kilograms
Feed DM/Gain, Period [6, 18]: 5.05
Daily Feed DM Consumption, Period [6, 19]: 1.14 kilograms
Daily Gain, Period [6, 19]: .22 kilograms
Feed DM/Gain, Period [6, 19]: 5.18
Daily Feed DM Consumption, Period [6, 20]: 1.12 kilograms
Daily Gain, Period [6, 20]: .22 kilograms
Feed DM/Gain, Period [6, 20]: 5.09
Daily Feed DM Consumption, Period [6, 21]: 1.29 kilograms
Feed DM/Gain, Period [6, 21]: 8.06
Daily Gain, Period ([6]; Oral, 30 ppm): .14 kilograms
Weight, Final ([6]; Oral, 30 ppm): 43.0 kilograms
Weight, Initial ([6]; Oral, 30 ppm (baseline)): 28.1 kilograms
Daily Feed DM Consumption, Cumulative ([6]; Oral, 30 ppm, Day 0-14): 1.05 kilograms
Daily Feed DM Consumption, Period ([6]; Oral, 30 ppm, Day 0-14): 1.05 kilograms
Daily Gain, Cumulative ([6]; Oral, 30 ppm, Day 0-14): .27 kilograms
Daily Gain, Period ([6]; Oral, 30 ppm, Day 0-14): .27 kilograms
Feed DM/Gain, Cumulative ([6]; Oral, 30 ppm, Day 0-14): 3.89
Feed DM/Gain, Period ([6]; Oral, 30 ppm, Day 0-14): 3.89
Daily Feed DM Consumption, Cumulative ([6]; Oral, 30 ppm, Day 0-28): 1.10 kilograms
Daily Gain, Cumulative ([6]; Oral, 30 ppm, Day 0-28): .24 kilograms
Feed DM/Gain, Cumulative ([6]; Oral, 30 ppm, Day 0-28): 4.58
Daily Feed DM Consumption, Cumulative ([6]; Oral, 30 ppm, Day 0-42): 1.12 kilograms
Daily Gain, Cumulative ([6]; Oral, 30 ppm, Day 0-42): .23 kilograms
Feed DM/Gain, Cumulative ([6]; Oral, 30 ppm, Day 0-42): 4.87
Daily Feed DM Consumption, Cumulative ([6]; Oral, 30 ppm, Day 0-56): 1.14 kilograms
Daily Gain, Cumulative ([6]; Oral, 30 ppm, Day 0-56): .23 kilograms
Feed DM/Gain, Cumulative ([6]; Oral, 30 ppm, Day 0-56): 4.96
Daily Feed DM Consumption, Cumulative ([6]; Oral, 30 ppm, Day 0-70): 1.16 kilograms
Daily Gain, Cumulative ([6]; Oral, 30 ppm, Day 0-70): .21 kilograms
Feed DM/Gain, Cumulative ([6]; Oral, 30 ppm, Day 0-70): 5.52
Daily Feed DM Consumption, Period ([6]; Oral, 30 ppm, Day 15-28): 1.16 kilograms
Daily Gain, Period ([6]; Oral, 30 ppm, Day 15-28): .20 kilograms
Feed DM/Gain, Period ([6]; Oral, 30 ppm, Day 15-28): 5.80
Daily Feed DM Consumption, Period ([6]; Oral, 30 ppm, Day 29-42): 1.17 kilograms
Daily Gain, Period ([6]; Oral, 30 ppm, Day 29-42): .22 kilograms
Feed DM/Gain, Period ([6]; Oral, 30 ppm, Day 29-42): 5.32
Daily Feed DM Consumption, Period ([6]; Oral, 30 ppm, Day 43-56): 1.19 kilograms
Daily Gain, Period ([6]; Oral, 30 ppm, Day 43-56): .23 kilograms
Feed DM/Gain, Period ([6]; Oral, 30 ppm, Day 43-56): 5.17
Daily Feed DM Consumption, Period ([6]; Oral, 30 ppm, Day 57-70): 1.26 kilograms
Feed DM/Gain, Period ([6]; Oral, 30 ppm, Day 57-70): 9.00
improvement of average daily gain as compared with controls [7]: about 10%
improvement of feed-to-gain ratio as compared with controls [7]: about 4%
average daily gain (ADG) ([7]; control 0.867): 0.958 kg
average daily feed consumption (ADF) ([7]; control 2.76): 2.96 kg
feed-to-gain ratio (F/G) ([7]; control 3.18): 3.03
